Measurements taken from article PMC5767893 (ACS Medicinal Chemistry Letters, 2017).

Assays:
p300 HAT domain = molecular target: T1, p300 HAT domain (Homo sapiens, UniProt Q09472); conditions: for LE (ligand efficiency): LE = −1.4 log Ki/# heavy atoms
T1 sequence (Q09472 1287-1663 limits assumed): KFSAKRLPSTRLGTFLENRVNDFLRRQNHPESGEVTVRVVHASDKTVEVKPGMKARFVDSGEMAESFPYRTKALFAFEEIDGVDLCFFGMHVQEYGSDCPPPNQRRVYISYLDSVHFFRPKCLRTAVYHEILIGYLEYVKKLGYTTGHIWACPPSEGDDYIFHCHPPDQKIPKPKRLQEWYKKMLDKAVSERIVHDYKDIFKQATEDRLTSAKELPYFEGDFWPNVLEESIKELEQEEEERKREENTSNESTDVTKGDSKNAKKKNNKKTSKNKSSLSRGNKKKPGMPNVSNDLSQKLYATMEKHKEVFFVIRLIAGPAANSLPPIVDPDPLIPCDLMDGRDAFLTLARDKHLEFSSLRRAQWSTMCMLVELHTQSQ

[1] = Mouse microsomal stability; type: in vitro ADME; conditions: microsomes
[2] = mouse
[3] = Nonspecific microsomal binding; type: in vitro ADME; conditions: human, microsomes
in vivo = conditions: mouse, plasma, po, 1 mg/kg
Plasma protein binding = type: in vitro ADME; conditions: mouse

SMILES | LE (ligand efficiency) (p300 HAT domain) | CLint scaled [1] [L/h/kg] | mouse microsomal stability CL scaled [1] [L/h/kg] | other results
CC(C1CC1)N(Cc1ccccc1)C(=O)CN1C(=O)NC(Cc2c[nH]c3ccccc23)C1=O (stereo not drawn) [Compound 1] | 0.23 | – | – | LipE (lipid efficiency) (p300 HAT domain; LipE = −log Ki – clogP): 3
CNC(=O)Nc1ccc2c(c1)CC[C@@]21OC(=O)N(CC(=O)N(Cc2ccccc2)[C@@H](C)C2CC2)C1=O [Compound 22] | – | 188 | 107 | –
CNC(=O)Nc1ccc2c(c1)CC[C@]21NC(=O)N(CC(=O)N(Cc2ccccc2)[C@@H](C)C2CC2)C1=O [Compound 20] | – | – | – | oral AUC ([2]; 10 mg/kg oral dose): no exposure
Cc1ccccc1C1NC(=O)N(CC(=O)N(Cc2ccccc2)[C@@H](C)C2CC2)C1=O (stereo partly drawn) [Compound 3b] | 0.27 | – | – | –
CNC(=O)Nc1ccc2c(c1)CC[C@@]21OC(=O)N(CC(=O)N(Cc2ccc(F)cc2)[C@H](C2CC2)C(F)(F)F)C1=O [Compound 23] | – | 181 | 41 | fraction unbound [3]: 0.22; AUC (in vivo): 1100 ng·h/mL; fraction unbound (Plasma protein binding): 0.002; F % oral [2]: 45%
